Data reported in patent publication US20140058103A1, “Inhibitors of PI3K-Delta and Methods of Their Use and Manufacture” (Exelixis, Inc., priority 2010, published 2014).
pIC50: −log10 of the molar value.

Target: PI3K delta (Homo sapiens, UniProt O00329)
Experiment: Luciferase-coupled chemiluminescence kinase assay (ATP consumption, KinaseGlo)
Format: biochemical
How it was run: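 Compound, kinase and ATP (≤ KM) reacted 2 h at ambient temperature, then remaining ATP quantified with luciferase-luciferin (KinaseGlo) luminescence as percent consumed.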

Sequence of PI3K delta (O00329 whole entry): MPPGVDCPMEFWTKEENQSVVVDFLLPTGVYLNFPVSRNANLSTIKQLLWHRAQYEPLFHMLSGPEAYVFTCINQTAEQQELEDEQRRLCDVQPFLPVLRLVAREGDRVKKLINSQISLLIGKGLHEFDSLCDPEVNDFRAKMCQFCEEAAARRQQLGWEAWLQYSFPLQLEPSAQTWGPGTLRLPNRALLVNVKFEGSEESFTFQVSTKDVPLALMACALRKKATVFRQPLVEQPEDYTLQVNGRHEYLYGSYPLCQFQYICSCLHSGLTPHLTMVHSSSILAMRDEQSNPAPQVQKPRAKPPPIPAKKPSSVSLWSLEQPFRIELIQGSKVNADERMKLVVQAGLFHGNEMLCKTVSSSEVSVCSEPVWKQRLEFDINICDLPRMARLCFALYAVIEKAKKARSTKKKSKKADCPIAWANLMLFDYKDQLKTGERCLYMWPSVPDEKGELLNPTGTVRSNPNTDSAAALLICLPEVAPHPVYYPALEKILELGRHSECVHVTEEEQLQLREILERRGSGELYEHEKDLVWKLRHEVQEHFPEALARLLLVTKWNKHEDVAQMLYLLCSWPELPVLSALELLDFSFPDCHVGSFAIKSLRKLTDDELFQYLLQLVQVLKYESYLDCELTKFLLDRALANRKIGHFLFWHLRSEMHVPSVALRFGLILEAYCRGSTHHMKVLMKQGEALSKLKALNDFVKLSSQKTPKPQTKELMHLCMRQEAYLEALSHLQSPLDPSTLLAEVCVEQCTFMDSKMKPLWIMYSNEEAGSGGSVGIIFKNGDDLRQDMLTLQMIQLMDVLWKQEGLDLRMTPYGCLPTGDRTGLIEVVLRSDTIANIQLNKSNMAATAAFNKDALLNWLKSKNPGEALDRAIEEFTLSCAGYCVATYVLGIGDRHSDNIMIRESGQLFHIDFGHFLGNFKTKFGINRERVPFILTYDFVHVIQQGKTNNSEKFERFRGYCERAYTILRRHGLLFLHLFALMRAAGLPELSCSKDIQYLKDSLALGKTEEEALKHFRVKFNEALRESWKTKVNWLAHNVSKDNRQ
Sequence of PI3K delta (P27986 whole entry partner): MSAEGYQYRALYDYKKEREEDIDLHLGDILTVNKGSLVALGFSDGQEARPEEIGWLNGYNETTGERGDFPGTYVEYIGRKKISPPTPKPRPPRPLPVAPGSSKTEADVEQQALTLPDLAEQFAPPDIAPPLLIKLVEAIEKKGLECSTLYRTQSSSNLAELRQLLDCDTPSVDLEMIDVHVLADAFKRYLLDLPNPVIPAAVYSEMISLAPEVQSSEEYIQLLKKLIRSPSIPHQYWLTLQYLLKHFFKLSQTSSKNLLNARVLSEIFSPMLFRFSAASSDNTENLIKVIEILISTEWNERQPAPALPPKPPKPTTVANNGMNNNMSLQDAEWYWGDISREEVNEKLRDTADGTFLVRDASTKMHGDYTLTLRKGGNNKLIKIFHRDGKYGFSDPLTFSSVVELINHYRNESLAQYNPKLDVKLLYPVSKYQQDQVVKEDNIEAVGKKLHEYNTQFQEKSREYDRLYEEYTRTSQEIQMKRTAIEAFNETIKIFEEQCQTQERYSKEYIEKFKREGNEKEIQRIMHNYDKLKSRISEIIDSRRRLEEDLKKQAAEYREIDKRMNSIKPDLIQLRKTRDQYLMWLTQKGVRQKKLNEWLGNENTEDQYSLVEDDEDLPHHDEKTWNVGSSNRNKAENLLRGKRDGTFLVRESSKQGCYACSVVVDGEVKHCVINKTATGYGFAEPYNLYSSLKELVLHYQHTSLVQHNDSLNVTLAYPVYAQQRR

SMILES	pIC50
Cc1nnc(-c2nc3c(N4CCC(n5c(=O)[nH]c6ccccc65)CC4)ncnc3n2C)o1 [Compound 102, 1-{1-[9-methyl-8-(5-methyl-1,3,4-oxadiazol-2-yl)-9H-purin-6-yl]piperidin-4-yl}-1,3-dihydro-2H-benzimidazol-2-one]	6.60 to 7.30
CCCC(=O)c1nc2c(N3CCC(n4c(=O)[nH]c5ccccc54)CC3)ncnc2n1C [Compound 113, 1-[1-(8-butanoyl-9-methyl-9H-purin-6-yl)piperidin-4-yl]-1,3-dihydro-2H-benzimidazol-2-one]	6.60 to 7.30
Cn1c(C(=O)NCc2ccco2)nc2c(N3CCC(n4c(=O)[nH]c5ccccc54)CC3)ncnc21 [Compound 46, N-(furan-2-ylmethyl)-9-methyl-6-[4-(2-oxo-2,3-dihydro-1H-benzimidazol-1-yl)piperidin-1-yl]-9H-purine-8-carboxamide]	6.60 to 7.30
CCn1c(C(=O)NCC(F)(F)F)nc2c(N3CCC4(CC3)C(=O)Nc3ccccc34)ncnc21 [Compound 160, 9-ethyl-6-(2-oxo-1,2-dihydro-1′H-spiro[indole-3,4′-piperidin]-1′-yl)-N-(2,2,2-trifluoroethyl)-9H-purine-8-carboxamide]	> 7.30
Cn1c(C(=O)NC(C)(C)C)nc2c(N3CCC4(CC3)C(=O)Nc3ccccc34)ncnc21 [Compound 75, N-(1,1-dimethylethyl)-9-methyl-6-(2-oxo-1,2-dihydro-1′H-spiro[indole-3,4′-piperidin]-1′-yl)-9H-purine-8-carboxamide]	6.60 to 7.30
Cn1c(C(=O)NC2CCC2)nc2c(N3CCC4(CC3)C(=O)Nc3ccccc34)ncnc21 [Compound 15, N-cyclobutyl-9-methyl-6-(2-oxo-1,2-dihydro-1′H-spiro[indole-3,4′-piperidin]-1′-yl)-9H-purine-8-carboxamide]	6.60 to 7.30
Cn1c(C(=O)NCC2CC2)nc2c(N3CCC4(CC3)CC(=O)Nc3ccccc3O4)ncnc21 [Compound 170, N-(cyclopropylmethyl)-9-methyl-6-(4-oxo-4,5-dihydro-1′H,3H-spiro[1,5-benzoxazepine-2,4′-piperidin]-1′-yl)-9H-purine-8-carboxamide]	6.30 to 6.60
Cn1c(C(=O)NCC2CC2)nc2c(N3CCC(n4c(=O)[nH]c5ccccc54)C3)ncnc21 (stereo not drawn) [Compound 172, N-(cyclopropylmethyl)-9-methyl-6-[3-(2-oxo-2,3-dihydro-1H-benzimidazol-1-yl)pyrrolidin-1-yl]-9H-purine-8-carboxamide]	5.82 to 6.30
CCCn1cc(-c2nc3c(N4CCC(n5c(=O)[nH]c6ccccc65)CC4)ncnc3n2C)cn1 [Compound 147, 1-{1-[9-methyl-8-(1-propyl-1H-pyrazol-4-yl)-9H-purin-6-yl]piperidin-4-yl}-1,3-dihydro-2H-benzimidazol-2-one]	> 7.30
Cn1cc(-c2nc3c(N4CCN(c5ccc(OCC6CC6)cc5)CC4)ncnc3n2C)cn1 [Compound 360]	5.82 to 6.30
COC(=O)c1nc2c(N3CCC(n4c(=O)[nH]c5ccccc54)CC3)ncnc2n1C [Compound 78, Methyl 9-methyl-6-[4-(2-oxo-2,3-dihydro-1H-benzimidazol-1-yl)piperidin-1-yl]-9H-purine-8-carboxylate]	5.82 to 6.30
CCn1c(C(=O)NCC(F)(F)F)nc2c(N3CCC(n4c(=O)[nH]c5ccccc54)CC3)ncnc21 [Compound 155, 9-ethyl-6-[4-(2-oxo-2,3-dihydro-1H-benzimidazol-1-yl)piperidin-1-yl]-N-(2,2,2-trifluoroethyl)-9H-purine-8-carboxamide]	> 7.30
CCCNC(=O)c1nc2c(N3CCC(n4c(=O)[nH]c5ccccc54)CC3)ncnc2n1C [Compound 69, 9-methyl-6-[4-(2-oxo-2,3-dihydro-1H-benzimidazol-1-yl)piperidin-1-yl]-N-propyl-9H-purine-8-carboxamide]	6.60 to 7.30
Cn1c(C(=O)NCCO)nc2c(N3CCC4(CC3)C(=O)Nc3ccccc34)ncnc21 [Compound 25, N-(2-hydroxyethyl)-9-methyl-6-(2-oxo-1,2-dihydro-1′H-spiro[indole-3,4′-piperidin]-1′-yl)-9H-purine-8-carboxamide]	6.30 to 6.60

Continued, values first:

pIC50	SMILES
> 7.30	CCn1c(C(=O)N2CCC(F)(F)C2)nc2c(N3CCC4(CC3)C(=O)Nc3ccccc34)ncnc21 [Compound 218, 1′-{8-[(3,3-difluoropyrrolidin-1-yl)carbonyl]-9-ethyl-9H-purin-6-yl}spiro[indole-3,4′-piperidin]-2(1H)-one]
6.30 to 6.60	Cn1cc(-c2nc3c(N4CCN(S(=O)(=O)c5ccccc5)CC4)ncnc3n2C)cn1 [Compound 355, 9-methyl-8-(1-methyl-1H-pyrazol-4-yl)-6-[4-(phenylsulfonyl)piperazin-1-yl]-9H-purine]
6.60 to 7.30	CC(C)CCn1cc(-c2nc3c(N4CCC(n5c(=O)[nH]c6ccccc65)CC4)ncnc3n2C)cn1 [Compound 233, 1-(1-{9-methyl-8-[1-(3-methylbutyl)-1H-pyrazol-4-yl]-9H-purin-6-yl}piperidin-4-yl)-1,3-dihydro-2H-benzimidazol-2-one]
6.60 to 7.30	Cn1cc(-c2nc3c(N4CCN(C5=NS(=O)(=O)c6ccccc65)CC4)ncnc3n2C)cn1 [Compound 348, 6-[4-(1,1-dioxido-1,2-benzisothiazol-3-yl)piperazin-1-yl]-9-methyl-8-(1-methyl-1H-pyrazol-4-yl)-9H-purine]
6.60 to 7.30	Cn1cc(-c2nc3c(N4CC[C@@H](n5c(=O)[nH]c6ccccc65)[C@H](CO)C4)ncnc3n2C)cn1 [Compound 338, 1-{(3R,4R)-3-(hydroxymethyl)-1-[9-methyl-8-(1-methyl-1H-pyrazol-4-yl)-9H-purin-6-yl]piperidin-4-yl}-1,3-dihydro-2H-benzimidazol-2-one]
> 7.30	CCn1c(C(=O)NCC(C)(C)C)nc2c(N3CCC(n4c(=O)[nH]c5ccccc54)CC3)ncnc21 [Compound 190, N-(2,2-dimethylpropyl)-9-ethyl-6-[4-(2-oxo-2,3-dihydro-1H-benzimidazol-1-yl)piperidin-1-yl]-9H-purine-8-carboxamide]
5.82 to 6.30	COC(=O)C1(c2ccccc2)CCN(c2ncnc3c2nc(-c2cnn(C)c2)n3C)CC1 [Compound 274, methyl 1-[9-methyl-8-(1-methyl-1H-pyrazol-4-yl)-9H-purin-6-yl]-4-phenylpiperidine-4-carboxylate]
